Source: patent publication US10653688B2, “6-(6-membered heteroaryl and aryl)isoquinolin-3-yl carboxamides and preparation and use thereof” (Samumed, LLC, priority 2017, dated 2020)
Like-named read-outs stand apart in the source and are kept apart here.

What was measured:
[1] = tested on: Wnt activity (SW480 colon carcinoma cells stably expressing the Sp5-Luc reporter gene); test: Wnt activity screening assay (Sp5-Luc reporter gene assay); type: cell-based, human; conditions: Homo sapiens; for EC50: 36 to 48 hours; for inhibition at 10 µM: read-out: percent inhibition at 10 μM (given for EC50 >10 μM), 10 μM
Excerpt: The screening assay for Wnt activity is described as follows. Reporter cell lines can be generated by stably transducing cancer cell lines (e.g., colon cancer) or primary cells (e.g., IEC-6 intestinal cells) with a lentiviral construct that includes a Wnt-responsive promoter driving expression of the firefly luciferase gene.
SW480 colon carcinoma cells were transduced with a lentiviral vector expressing luciferase with a human Sp5 promoter consisting of a sequence of eight TCF/LEF binding sites. SW480 cells stably expressing the Sp5-Luc reporter gene and a hygromycin resistance gene were selected by treatment with 150 μg/mL of hygromycin for 7 days. These stably transduced SW480 cells were expanded in cell culture and used for all further screening activities. […] For Sp5-Luc reporter gene assays, the cells were plated at 4,000 cells/well in 384-well plates with a DMEM medium containing 1% fetal bovine serum, and 1% Penicillin-Streptomycin and incubated for 36 to 48 hours at 37° C. and 5% CO2. Following incubation, 15 μl of BriteLite Plus luminescence reagent (Perkin Elmer) was added to each well of the 384-well assay plates. The plates were placed on an orbital shaker for 2 min and then luminescence was quantified using the Envision (Perkin Elmer) plate reader. Readings were normalized to DMSO only treated cells, and normalized activities were utilized for EC50 calculations using the dose-response log (inhibitor) vs. response-variable slope (four parameters) nonlinear regression feature available in GraphPad Prism 5.0 (or Dotmatics).

recombinant GSK3β kinase = recombinant GSK3β kinase (Homo sapiens (Human), UniProt P49841); test: GSK3β kinase assay (Ser/Thr 09 peptide Z-lyte, FRET); type: biochemical;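 note: FRET read-out as coumarin over fluorescein emission ratio, compounds incubated one hour at room temperature, IC50 from dose-response curve fit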
recombinant GSK3β kinase, sequence (P49841 whole entry): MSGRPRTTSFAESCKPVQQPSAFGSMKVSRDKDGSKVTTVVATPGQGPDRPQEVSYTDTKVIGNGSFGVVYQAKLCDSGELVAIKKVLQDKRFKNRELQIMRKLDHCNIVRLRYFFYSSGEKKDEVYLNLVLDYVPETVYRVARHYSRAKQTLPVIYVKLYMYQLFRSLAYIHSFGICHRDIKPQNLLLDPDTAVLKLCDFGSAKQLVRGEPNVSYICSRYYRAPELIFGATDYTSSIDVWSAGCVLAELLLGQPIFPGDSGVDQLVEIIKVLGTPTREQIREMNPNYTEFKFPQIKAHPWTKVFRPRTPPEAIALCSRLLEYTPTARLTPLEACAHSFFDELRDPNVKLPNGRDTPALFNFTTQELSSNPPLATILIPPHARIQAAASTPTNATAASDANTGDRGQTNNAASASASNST

[2] = tested on: SW480 colon carcinoma cells; test: Cell viability assay (CellTiter-Glo); type: cell-based, human; conditions: Homo sapiens; for EC50: 96 h, four days, CellTiter-Glo; for inhibition at 10 µM: read-out: percent inhibition at 10 μM (given for EC50 >10 μM), 10 μM
Protocol: SW480 colon carcinoma cells were transduced with a lentiviral vector expressing luciferase with a human Sp5 promoter consisting of a sequence of eight TCF/LEF binding sites. SW480 cells stably expressing the Sp5-Luc reporter gene and a hygromycin resistance gene were selected by treatment with 150 μg/mL of hygromycin for 7 days. These stably transduced SW480 cells were expanded in cell culture and used for all further screening activities.
For the Cell Viability Assays, the cells were plated at 2,000 cells/well in 384-well plates with a DMEM medium containing 1% fetal bovine serum, and 1% Penicillin-Streptomycin and incubated for […] at 37° C. and 5% CO2. Eight replicates of DMSO-treated cells served as controls and cells treated with compound were performed in duplicate.
After incubation, 10 μL of CellTiter-Glo (Promega) was added to each well allowed to incubate for approximately 12 minutes. This reagent “results in cell lysis and generation of a luminescent signal proportional to the amount of ATP present. The amount of ATP is directly proportional to the number of cells present in culture, in agreement with previous reports. The CellTiter-Glo Assay generates a “glow-type” luminescent signal, produced by the luciferase reaction (Promega.com)”.

[3] = tested on: LL29 cells (primary human fibroblasts derived from IPF patients), α-smooth muscle actin; test: Inhibition of fibrotic process: TGF-β1-treated primary human fibroblasts, αSMA staining; type: cell-based; conditions: Homo sapiens, Fibroblast; for EC50: 96 h, TGF-β1 20 ng/mL, 4 days, % cells positive for αSMA; for inhibition at 10 µM: read-out: percent inhibition at 10 μM (given for EC50 >10 μM), TGF-β1, αSMA, 10 μM;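 for all read-outs here: controls were TGF-β1-stimulated wells with DMSO vehicle as the positive reference and cells given DMSO alone as the negative reference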
[4] = tested on: IL-6 in human peripheral blood mononuclear cells (huPBMCs); test: IL-6 inhibition in LPS-stimulated human peripheral blood mononuclear cells (HTRF); type: cell-based; conditions: Homo sapiens, PBMC; for EC50: LPS 50 ng/mL, 22 hours, IL-6 HTRF; for inhibition at 10 µM: read-out: percent inhibition at 10 μM (given for EC50 >10 μM), LPS, IL-6, 10 μM
Protocol: Human Peripheral Blood Mononuclear Cells:
Fresh Normal PB MNC (Catalog # PB001, AllCells, Alameda, Calif.) were shipped overnight at 4° C. and resuspended in Roswell Park Memorial Institute (RPMI) 1640 Medium, with GlutaMAX Supplement (Catalog #61870127, ThermoFisher Scientific, Waltham, Mass.) supplemented with 1% Penicillin-Streptomycin (Catalog #15140163, ThermoFisher Scientific, Waltham, Mass.) and 1% fetal bovine serum (FBS) (Catalog #16140089, ThermoFisher Scientific, Waltham, Mass.) assay media.
Fresh normal human peripheral blood mononuclear cells (huPBMCs) were resuspended in 1% FBS-RPMI assay media with 1% Penicillin-Streptomycin 1% to a cell concentration of 1×10e6 cells/mL. […] 50 ng/mL of Lipopolysaccharides from Escherichia coli 0111:B4 (Catalog # L5293-2ML, Sigma-Aldrich, St. Louis, Mo.) was added after 2 hours and cells were incubated for another 22 hours at 37° C.-5% CO2. After 22 hour incubation, a mixture of anti-IL6 XL665 and anti-IL-6 Cryptate diluted in reconstitution buffer (Catalog #62IL6PEC, Cisbio Inc., Bedford, Mass.) was added to each well. Following incubation for 3 hours at room temperature, Homogeneous Time-Resolved Fluorescence (HTRF) was measured using the Envision (Perkin Elmer, Shelton, Conn.) at 665 nm and […]. The ratio of fluorescence at 665 nm to 620 nm was used as a readout for IL-6 quantification. All samples were processed in duplicate. Readings were normalized to DMSO treated cells and normalized activities were utilized for EC50 calculations. EC50 was determined using software generated by Dotmatics Limited (Windhill Bishops Stortford Herts, UK) using the Levenberg-Marquardt 4 parameter fitting procedure with finite different gradients.

[5] = target: recombinant DYRK1A kinase (Homo sapiens (Human), UniProt Q13627); test: DYRK1A kinase assay (Ser/Thr 18 peptide Z-lyte, FRET)
Protocol: Each compound was dissolved in DMSO as a 10 mM stock and used to prepare compound source plates.
This is a non-radioactive assay using fluorescence resonance energy transfer (FRET) between coumarin and fluorescein to detect kinase activity which is represented as a ratio of coumarin emission/fluorescein emission.
The mixture was allowed to incubate with the representative compounds for one hour at room temperature. All reactions were performed in duplicate. Unphosphorylated (“0% Control”) and phosphorylated (“100% control”) forms of Ser/Thr 18 served as control reactions. Additionally, an 11-point dose-response curve of Staurosporine (luM top) was run to serve as a positive compound control.
After incubation, Development Reagent A was diluted in Development Buffer then added to the reaction and allowed to further incubate for one hour at room temperature.
Dose-response curves were generated and inhibitory concentration (IC50) values were calculated using non-linear regression curve fit in the Dotmatics' Studies Software (Bishops Stortford, UK).

[6] = GSK3β kinase, head says EC50, method says IC50, ATP 46 μM
[7] = DYRK1A kinase, head says EC50, method says IC50, ATP 30 μM

SMILES | EC50 [1] | EC50 (recombinant GSK3β kinase) | EC50 [2] | EC50 [4] | EC50 [5] | EC50 (recombinant GSK3β kinase; [6]) | EC50 [5, 7] | EC50 [3] | inhibition at 10 µM [4] | inhibition at 10 µM [2] | inhibition at 10 µM [3] | inhibition at 10 µM [1]
CN1CCN(c2cc(C(=O)Nc3cc4cc(-c5ccc(N)nc5)ccc4cn3)ccn2)CC1 [Compound 39, N-(6-(6-Aminopyridin-3-yl)isoquinolin-3-yl)-2-(4-methylpiperazin-1-yl) isonicotinamide] | 0.71 µM | > 10 µM | 2.71 µM | 3.39 µM | 0.012 µM |  |  | 2.48 µM |  |  |  | 
CNc1ccc(-c2ccc3cnc(NC(=O)c4ccnc(N5CCN(C)CC5)c4)cc3c2)cn1 [Compound 40, N-(6-(6-(Methylamino)pyridin-3-yl)isoquinolin-3-yl)-2-(4-methylpiperazin-1-yl)isonicotinamide] | 4.12 µM | > 10 µM | 3.37 µM | > 10 µM | 0.064 µM |  |  | 1.47 µM | 3.7% |  |  | 
CC(C)Nc1cncc(-c2ccc3cnc(NC(=O)c4cccc(C5CCNCC5)c4)cc3c2)c1 [Compound 41, N-(6-(5-(Isopropylamino)pyridin-3-yl)isoquinolin-3-yl)-3-(piperidin-4-yl) benzamide] | 0.573 µM |  | 0.636 µM | 1.11 µM |  | > 10 µM | 0.004 µM | 0.571 µM |  |  |  | 
CC(C)Nc1cncc(-c2ccc3cnc(NC(=O)c4cccc(C5CCN(C)CC5)c4)cc3c2)c1 [Compound 42, N-(6-(5-(Isopropylamino)pyridin-3-yl)isoquinolin-3-yl)-3-(1-methylpiperidin-4-yl)benzamide] | 0.403 µM |  | 0.491 µM | 1.1 µM |  | > 10 µM | 0.003 µM | 0.631 µM |  |  |  | 
CC(C)Nc1cncc(-c2ccc3cnc(NC(=O)c4ccnc(N5CCN(C)CC5)c4)cc3c2)c1 [Compound 43, N-(6-(5-(Isopropylamino)pyridin-3-yl)isoquinolin-3-yl)-2-(4-methylpiperazin-1-yl)isonicotinamide] | 0.275 µM |  | 0.467 µM | 2.06 µM |  | > 10 µM | 0.002 µM | 0.217 µM |  |  |  | 
O=C(Nc1cc2cc(-c3cncc(NC4CCNCC4)c3)ccc2cn1)c1ccc(F)cc1 [Compound 45, 4-fluoro-N-(6-(5-(piperidin-4-ylamino)pyridin-3-yl)isoquinolin-3-yl) benzamide] | 0.698 µM | > 10 µM | 0.865 µM | 1.13 µM | 0.009 µM |  |  | 0.622 µM |  |  |  | 
CN1CCC(Nc2cncc(-c3ccc4cnc(NC(=O)c5ccc(F)cc5)cc4c3)c2)CC1 [Compound 46, 4-Fluoro-N-(6-(5-((1-methylpiperidin-4-yl)amino)pyridin-3-yl)isoquinolin-3-yl)benzamide] | 4.41 µM |  | 4.25 µM | 1.38 µM |  | 7.09 µM | 0.003 µM | 0.682 µM |  |  |  | 
CN1CCN(c2cc(C(=O)Nc3cc4cc(-c5cncc(N(C)C)c5)ccc4cn3)ccn2)CC1 [Compound 48, N-(6-(5-(Dimethylamino)pyridin-3-yl)isoquinolin-3-yl)-2-(4-methylpiperazin-1-yl)isonicotinamide] | 2.32 µM | > 10 µM | 6.56 µM | 9.68 µM | 0.04 µM |  |  | 4.88 µM |  |  |  | 
CN1CCN(c2cc(C(=O)Nc3cc4cc(-c5ccc(N(C)C)nc5)ccc4cn3)ccn2)CC1 [Compound 49, N-(6-(6-(Dimethylamino)pyridin-3-yl)isoquinolin-3-yl)-2-(4-methylpiperazin-1-yl)isonicotinamide] | > 10 µM |  | > 10 µM | > 10 µM |  | > 10 µM | 0.904 µM | > 10 µM | 0% | 37.1% | 33.5% | 
O=C(Nc1cc2cc(-c3cncc(CN4CCCC4)c3)ccc2cn1)c1ccc(F)cc1 [Compound 52, 4-Fluoro-N-(6-(5-(pyrrolidin-1-ylmethyl)pyridin-3-yl)isoquinolin-3-yl) benzamide] | > 10 µM |  | 6.92 µM | > 10 µM |  | > 10 µM | 0.012 µM | > 10 µM | 17.6% |  | 37.1% | 17.7%

Further lines, with some results ahead:

EC50 [1] | EC50 (recombinant GSK3β kinase) | EC50 [2] | EC50 [4] | EC50 [5] | EC50 (recombinant GSK3β kinase; [6]) | EC50 [5, 7] | SMILES | EC50 [3] | inhibition at 10 µM [4] | inhibition at 10 µM [2] | inhibition at 10 µM [3] | inhibition at 10 µM [1]
0.382 µM | > 10 µM | 0.647 µM | > 10 µM | 0.003 µM |  |  | O=C(Nc1cc2cc(-c3cncc(CN4CCC(O)CC4)c3)ccc2cn1)c1ccc(F)cc1 [Compound 54, 4-Fluoro-N-(6-(5-((4-hydroxypiperidin-1-yl)methyl)pyridin-3-yl)isoquinolin-3-yl)benzamide] | > 10 µM | 17.9% |  | 11.2% | 
0.866 µM |  | 2.32 µM | > 10 µM |  | > 10 µM | 0.006 µM | CNC(=O)c1cncc(-c2ccc3cnc(NC(=O)c4ccnc(N5CCN(C)CC5)c4)cc3c2)c1 [Compound 59, N-methyl-5-(3-(2-(4-methylpiperazin-1-yl)isonicotinamido)isoquinolin-6-yl)nicotinamide] | 0.705 µM | 4.7% |  |  | 
> 10 µM |  | 8.02 µM | > 10 µM |  | > 10 µM | 0.158 µM | Cc1ncc(-c2ccc3cnc(NC(=O)c4ccnc(N5CCN(C)CC5)c4)cc3c2)cn1 [Compound 64, 2-(4-Methylpiperazin-1-yl)-N-(6-(2-methylpyrimidin-5-yl)isoquinolin-3-yl)isonicotinamide] | 2 µM | 5.7% |  |  | 28.7%
4.21 µM |  | 7.91 µM | 8.77 µM |  | 2.59 µM | 0.328 µM | O=C(CN1CCCC1)Nc1cc2cc(-c3ccnnc3)ccc2cn1 [Compound 68, N-(6-(Pyridazin-4-yl)isoquinolin-3-yl)-2-(pyrrolidin-1-yl)acetamide] | 3.39 µM |  |  |  | 
> 10 µM |  | > 10 µM | > 10 µM |  | > 10 µM | 0.258 µM | CN1CCC(F)(C(=O)Nc2cc3cc(-c4cnccn4)ccc3cn2)CC1 [Compound 76, 4-Fluoro-1-methyl-N-(6-(pyrazin-2-yl)isoquinolin-3-yl)piperidine-4-carboxamide] | > 10 µM | 1.6% | 17.5% | 13.1% | 15.7%
